In PubChem BioAssay (NCI):
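Compound exposure: 48 hours, 5 concentrations, 96-well plates. The concentration for 50% growth inhibition is given as GI50. TGI denotes the concentration required for complete inhibition of growth.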

What was measured:
Test in all cases: NCI tumour cell line growth inhibition, 48 h
[1] = system: OVCAR-3 ovarian
[2] = system: SF-268 CNS
[3] = system: A549 NSCLC
[4] = system: DLD-1 colon
[5] = system: LXFL 529 NSCLC
[6] = system: NCI-H23 lung
[7] = system: SW-620 colon
[8] = system: HL-60(TB) leukemia
[9] = system: TK-10 renal
[10] = system: SK-MEL-28 melanoma

Structure (SMILES) | TGI [1] [µM] | TGI [2] [µM] | TGI [3] [µM] | TGI [4] [µM] | TGI [5] [µM] | TGI [6] [µM] | TGI [7] [µM] | TGI [8] [µM] | TGI [9] [µM] | TGI [10] [µM] | GI50 [1] [µM] | GI50 [2] [µM] | GI50 [3] [µM] | GI50 [4] [µM] | GI50 [5] [µM] | GI50 [6] [µM] | GI50 [7] [µM] | GI50 [8] [µM] | GI50 [9] [µM] | GI50 [10] [µM]
Cc1cn2c(=O)c3ncn(C4OC(CO)C(O)C4O)c3n(C)c2n1 (stereo not given) | > 100 | > 100 | > 100 | > 100 | > 100 | > 100 | > 100 | > 100 | > 100 | > 100 | – | – | – | – | – | – | – | – | – | –
N.N.N.N.O=C([O-])CCl.O=C([O-])CCl.[Co+3].[O-][Cl+3]([O-])([O-])[O-] | > 100 | > 100 | > 100 | > 100 | > 100 | > 100 | > 100 | > 100 | > 100 | > 100 | > 100 | > 100 | > 100 | > 100 | > 100 | > 100 | > 100 | > 100 | > 100 | > 100
N#CN/C(N)=N/CO | > 100 | > 100 | > 100 | > 87.8 | > 100 | > 100 | > 56.3 | > 100 | > 100 | > 100 | – | – | – | – | – | – | – | – | – | –
CC12C/C(=C\c3ccccc3)C(=O)C3C1CCCC32 | > 100 | > 100 | > 100 | > 100 | > 100 | > 100 | > 100 | 55.6 | > 100 | > 100 | – | – | – | – | – | – | – | – | – | –
O=C(CCN(C(=O)O)S(=O)(=O)c1ccc(NC(=O)c2ccccc2)cc1)Nc1ccccc1 | > 100 | > 100 | > 46.4 | > 100 | > 100 | > 100 | > 68 | > 75.2 | > 100 | > 100 | – | – | – | – | – | – | – | – | – | –
CC(C)C(CCl)NC(=O)c1cccc(C(=O)N[C@H](CCl)C(C)C)n1 (stereo in doubt) | > 100 | > 100 | > 100 | > 100 | > 100 | > 100 | > 100 | > 100 | > 100 | > 100 | – | – | – | – | – | – | – | – | – | –
COC(=O)C(C(=O)c1ccccc1)C(C(=O)C(=O)Nc1ccc(OC)cc1OC)C(=O)C(=O)c1ccc(C)cc1 (stereo not given) | > 100 | > 100 | > 100 | > 100 | > 100 | > 100 | > 100 | > 100 | > 100 | > 100 | – | – | – | – | – | – | – | – | – | –
CCOC(=O)c1cnc2c(ccc3[nH]n(C)nc32)c1=O | > 100 | > 100 | > 100 | > 100 | > 100 | > 100 | 36.8 | > 100 | > 100 | > 100 | – | – | – | – | – | – | – | – | – | –
CC(C)CCC1CC2C(=O)N(c3ccccc3)C(=O)C2c2[nH]c3ccccc3c21 (stereo not given) | 7.63 | 13.5 | 17.7 | 15 | 20.2 | 12.9 | 13.1 | 5.73 | 16.1 | 20 | – | – | – | – | – | – | – | – | – | –
